# Test results published in US10214491B2, “Activators and therapeutic applications thereof” (THE JOHNS HOPKINS UNIVERSITY, priority 2007, dated 2019).
# Key:
# In vivo toxicity tests = details: mice; for toxicity by weight curves, macroscopical pathologies, hematoxylin-eosin staining of tissues: 9 doses/3 weeks
# Procedure: Acute and chronic toxicity of the compounds was tested on FVB/N mice. Female mice of 4-6 weeks old were purchased from Harlan and 2 animals were used per compound dose. The mice were injected intraperitoneally with the compounds three times a week for three weeks in 30 microL DMSO. Two animals received vehicle only (=30 μL DMSO). The animals were weighed prior to injections and were monitored for any signs of toxicity, distress or unusual behaviour. The animals were sacrificed three days after receiving the final injection. The liver, kidney, spleen, small intestine and thymus were excised and fixed in 4% paraformaldehyde overnight, and processed into paraffin-blocks. Haematoxylin-eosin staining (HE staining) of the tissues was performed using standard immunohistological techniques.
# [1] = tested on: BC3-luc pleural effusion lymphoma cells; experiment: Orthotopic xenograft model of pleural effusion lymphoma; type: in vivo; details: NOD-SCID mice
# Procedure: An orthotopic xenograft model of pleural effusion lymphoma was used to assess the anti-tumor activities of compounds 15, 21 and 22. Female NOD-SCID mice (Charles River, France) were injected intraperitoneally with pleural effusion lymphoma cells carrying a stable NF-kappaB regulated luciferase reporter (BC3-luc cells) (Keller et al., 2006). The tumors were allowed to establish for three days after which the mice were imaged and divided into treatment (groups 4-5 mice per group). The compound treatments were initiated on day four. The mice received 2 mg/kg (cmp21) or 20 mg/kg (cmp15 and 22) every other/third day for seven times via i.p. injections, control mice received DMSO only. The mice were imaged prior to each compound injection. Imaging was carried out with Xenogen In Vivo Imaging System (IVIS), D-luciferin (Synchem OHG, Germany) was injected intraperitoneally (100 mg/kg) 10-15 min prior to each imaging. Quantitation was done using Igor Pro Carbon analysis software, bioluminescence was quantitated and plotted as total flux within a given ROI.
# A375 melanoma cells = experiment: Flow cytometry cell cycle and apoptosis analysis; type: cell-based
# Procedure: Cell cycle analysis and cellular apoptosis was assayed with flow cytometry (LSR, Beckton Dickinson). Cells were treated with the compounds and both floating and adherent cells were harvested and fixed in 70% ethanol at −20° C. followed by staining of DNA with propidium iodide. A total of 10,000 counts were collected and data was analysed using ModFit LT 3.1 software. Cells present in sub-G1 population were regarded as apoptotic.
# [2] = tested on: Human intestinal endothelial cells; experiment: WST-1 cell viability assay, intestinal endothelial cells; type: cell-based; details: Endothelial cell, 72 h, three days
# Procedure: (§1) The effect of the compounds selected using the screening assay on the viability of several tumor cell lines as well as diploid cell lines and cell strains was studied. Cells were plated in 96-well plates at a density of 10,000 cells/100 μL/well and were incubated overnight. The following day compound dilutions ranging from 0 to 40 μM were applied to the cells in triplicate and the cells were incubated with the compounds for three days. Cell viability was assayed using the WST-1 cell proliferation reagent (Roche Diagnostics, Germany) The WST-1 reagent was diluted 1:10 in cell culture media and 100 μL of the reagent dilution was applied onto cells followed by 1 hour incubation at +37° C. The specific absorbance was measured at 450 nm and a reference absorbance was measured at 690 nm. […] Analysis for Protein Levels
# [3] = tested on: p53, Mdm2 and p21 levels in A375 melanoma cells; experiment: Immunoblotting and immunofluorescence for p53, Mdm2 and p21 levels; type: cell-based; details: A375, 24 hours
# Procedure: To study the effect of compounds on endogenous protein levels, A375 melanoma cells were treated with the compounds for 24 hours. Cellular lysates were prepared in lysis buffer containing 0.5% NP-40 with proteinase inhibitors. Protein (20-30 μg) was separated by sodium dodecyl sulphate-polyacrylamide gel electrophoresis (SDS-PAGE) followed by transfer to PVDF membrane (Immobilon™-P, Millipore, Bedford, Mass., USA). Immunoblotting was carried out using DO-1 antibody for p53, 2A10 for Mdm2 and anti-p21 (Becton Dickinson) to detect p21, followed by secondary antibodies conjugated with horseradish peroxidase (p53) or biotin followed by streptavidin-horseradish peroxidase (Mdm2 and p21) after which proteins were detected with enhanced chemiluminescence (ECL, Amersham Life Sciences). Equal protein loading was verified using GAPDH (p9.B.88, Europa Bioproducts Ltd, UK) as a protein loading control.
# Immunofluorescence staining was carried out to determine the correct localisation of p53 and to detect H2AX phosphorylation indicative of genotoxic stress. Cells were treated with the compounds and fixed in paraformaldehyde (3.5 PFA, 25 min RT). The coverslips were permeabilised in 0.5% NP-40 and blocked in 3% bovine serum albumin (BSA). p53 was detected by staining with FL-393 antibody (Santa Cruz, 1:50, 1 h at +37° C.) followed by Alexa-594 conjugated secondary antibody (Molecular Probes, 1:200, 1 h at +37° C.), phospho-H2AX was detected by staining with anti-H2AX (P-Ser-139) antibody (Upstate, 1:200 1 h at +37° C.) followed by Alexa-488 conjugated secondary antibody (Molecular Probes, 1:200, 1 h at +37° C.). Nuclei were stained with Hoechst 33342. Images were captured using the Zeiss Axioplan fluorescence microscope equipped with Zeiss AxioCam HRc CCD-camera and AxioVision 4.5 software using 40×, NA=0,75 objective, Chroma 31000, Chroma41001 and 41004 filters for Hoechst, Alexa488 and Alexa594, respectively.
# WS-1 diploid fibroblast = experiment: WST-1 cell viability assay, WS-1; type: cell-based, human; details: Homo sapiens, 72 h, three days
# Procedure: as §1
# RPMI7951 (MUTp53) = experiment: WST-1 cell viability assay, RPMI-7951; type: cell-based; details: Homo sapiens, RPMI-7951, 72 h, three days
# Procedure: as §1
# A375 melanoma (WTp53) = experiment: WST-1 cell viability assay, A375; type: cell-based; details: Homo sapiens, A-375, 72 h; A375 melanoma (WTp53), three days, WST-1
# Procedure: as §1
Compound,"acute or chronic toxicities based on histological HE-stainings (In vivo toxicity tests; i.p., 5, 10 and 20 mg/kg three times a week for three weeks)","toxicity by weight curves, macroscopical pathologies, hematoxylin-eosin staining of tissues (In vivo toxicity tests; i.p., 5, 10 and 20 mg/kg)",inhibition of tumor cell growth (bioluminescence) ([1]; 20 mg/kg i.p. seven times),"cell cycle / apoptosis phenotype (A375 melanoma cells; A375, three days at 10 μM or six days at 5 μM)",IC50 [2] [µM],Mdm2 induction ([3]; 5 μM),IC50 (WS-1 diploid fibroblast) [µM],IC50 (RPMI7951 (MUTp53)) [µM],IC50 (A375 melanoma (WTp53)) [µM],"acute or chronic toxicities based on histological HE-stainings (In vivo toxicity tests; i.p., 0.5, 1, 2 mg/kg three times a week for three weeks)","toxicity by weight curves, macroscopical pathologies, hematoxylin-eosin staining of tissues (In vivo toxicity tests; i.p., 0.5, 1, 2 mg/kg)",inhibition of tumor cell growth (bioluminescence) ([1]; 2 mg/kg i.p. seven times),"cell cycle / apoptosis phenotype (A375 melanoma cells; A375, 0.1 μM (three days) and 0.5 μM (six days))",Mdm2 induction ([3]; 0.5 μM),induction of p21 cyclin kinase inhibitor ([3]; 0.5 μM)
"Cc1cc(C)c2nc3nc(C)cc(C)c3c(N)c2c1 [Compound 22, 2,4,7,9-tetramethylbenzo[b]-1,8-naphthyridin-5-amine]",No acute or chronic toxicities were observed,did not show any apparent toxicity,noticeable inhibition of the tumor cell growth,G2-phase arrest and apoptosis,14.5,most prominent,11.5,13.3,4.6,–,–,–,–,–,–
CN(C)CCNC(=O)c1cccn2c(=O)c3cc4ccccc4cc3nc12 [Compound 21],–,–,–,–,2.7,–,1.9,3,0.7,No acute or chronic toxicities were observed,did not show any apparent toxicity,did not have any effect,G2-phase arrest and apoptosis,most prominent,most prominent
